# Source: ChEMBL document CHEMBL1144830, “Synthesis of small molecule inhibitors of the orphan nuclear receptor steroidogenic factor-1 (NR5A1) based on isoquinolinone scaffolds” (Bioorg Med Chem Lett, 2008)
# pIC50: −log10 of the molar value.
# Legend:
# [1] = Inhibition of HSV1 GAL4-tagged VP16 at 100 uM by luciferase assay
# Steroidogenic factor 1 [2] = molecular target: T1, Steroidogenic factor 1 (Homo sapiens, UniProt Q13285); test: Inhibition of GAL4-tagged NR5A1 by luciferase assay
# [3] = molecular target: T2, Nuclear receptor ROR-alpha (Homo sapiens, UniProt P35398); test: Inhibition of GAL4-tagged RORalpha by luciferase assay
# T2 sequence (P35398 whole entry): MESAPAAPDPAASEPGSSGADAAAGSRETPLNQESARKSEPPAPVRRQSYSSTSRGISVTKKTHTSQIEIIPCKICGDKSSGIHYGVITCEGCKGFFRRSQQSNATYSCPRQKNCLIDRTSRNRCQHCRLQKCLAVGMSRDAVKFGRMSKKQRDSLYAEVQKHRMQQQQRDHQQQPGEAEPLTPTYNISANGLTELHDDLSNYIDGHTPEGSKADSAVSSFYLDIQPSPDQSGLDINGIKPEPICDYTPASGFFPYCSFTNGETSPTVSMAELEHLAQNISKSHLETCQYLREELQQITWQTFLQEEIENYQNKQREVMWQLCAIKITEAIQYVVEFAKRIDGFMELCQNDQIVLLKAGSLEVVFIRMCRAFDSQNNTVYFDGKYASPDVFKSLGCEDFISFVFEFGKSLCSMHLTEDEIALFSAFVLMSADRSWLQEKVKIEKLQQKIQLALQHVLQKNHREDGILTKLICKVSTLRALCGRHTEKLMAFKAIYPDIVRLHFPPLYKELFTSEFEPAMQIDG
# [4] = Inhibition of HSV1 GAL4-tagged VP16 by luciferase assay
# [5] = molecular target: T3, Nuclear receptor ROR-alpha (Homo sapiens) (UniProt P35398); test: Inhibition of GAL4-tagged RORalpha at 100 uM by luciferase assay
# T3 sequence (whole entry): T2 sequence (P35398 whole entry)
# Steroidogenic factor 1 [6] = molecular target: T1, Steroidogenic factor 1; test: Inhibition of GAL4-tagged NR5A1 at 100 uM by luciferase assay
# T1 sequence (Q13285 whole entry, the tested form may be a part): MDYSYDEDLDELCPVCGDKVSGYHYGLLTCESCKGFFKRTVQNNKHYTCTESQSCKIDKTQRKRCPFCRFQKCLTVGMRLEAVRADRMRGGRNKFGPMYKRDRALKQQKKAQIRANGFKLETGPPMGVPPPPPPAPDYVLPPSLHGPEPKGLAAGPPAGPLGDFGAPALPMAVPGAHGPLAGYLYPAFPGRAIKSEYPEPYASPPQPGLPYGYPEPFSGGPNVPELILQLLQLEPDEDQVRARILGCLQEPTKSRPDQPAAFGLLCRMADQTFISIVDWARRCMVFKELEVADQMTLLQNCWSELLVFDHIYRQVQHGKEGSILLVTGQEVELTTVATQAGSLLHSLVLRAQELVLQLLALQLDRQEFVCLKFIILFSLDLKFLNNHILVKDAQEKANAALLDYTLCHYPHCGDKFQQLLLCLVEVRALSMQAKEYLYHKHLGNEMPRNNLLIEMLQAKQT
Structure (SMILES),inhibition [1],pIC50 (Steroidogenic factor 1 [2]),pIC50 [3],pIC50 [4],inhibition [5],inhibition (Steroidogenic factor 1 [6])
CCOC(=O)C(C)Oc1cccc2c(=O)n(CC(=O)NCc3ccco3)ccc12 (stereo unspecified),< 50%,5.33,< 4.48,–,–,–
CCOC(=O)C(C)Oc1cccc2c(=O)n(CC(=O)Nc3ccc(OC(F)(F)F)cc3)ccc12 (stereo unspecified),< 50%,6.70,–,–,< 50%,–
CCOC(=O)C(C)Oc1cccc2c(=O)n(CC(=O)NC3CCCCC3)ccc12 (stereo unspecified),< 50%,5.75,–,–,< 50%,–
CCOC(=O)C(C)Oc1cccc2c(=O)n(CC(=O)NCCc3ccccc3)ccc12 (stereo unspecified),< 50%,6.44,< 4.48,–,–,–
CCOC(=O)C(C)Oc1cccc2c(=O)n(CC(=O)NCc3ccccc3)ccc12 (stereo unspecified),< 50%,5.97,5.49,–,–,–
CCCCNC(=O)Cn1ccc2c(OC(C)C(=O)OCC)cccc2c1=O (stereo unspecified),< 50%,5.01,–,–,< 50%,–
CCCCc1ccc(NC(=O)Cn2ccc3c(OC(C)C(=O)OCC)cccc3c2=O)cc1 (stereo unspecified),< 50%,6.44,4.51,–,–,–
CCOC(=O)C(C)Oc1cccc2c(=O)n(CC(=O)NCc3ccc(F)cc3)ccc12 (stereo unspecified),< 50%,6.17,5.77,–,–,–
CCOC(=O)C(C)Oc1cccc2c(=O)n(CC(=O)Nc3ccc([N+](=O)[O-])cc3)ccc12 (stereo unspecified),< 50%,6.28,–,–,< 50%,–

# Now from value to molecule:
inhibition [1],pIC50 (Steroidogenic factor 1 [2]),pIC50 [3],pIC50 [4],inhibition [5],inhibition (Steroidogenic factor 1 [6]),Structure (SMILES)
–,6.72,4.65,4.62,–,–,CCOC(=O)C(C)Oc1cccc2c(=O)n(CC(=O)Nc3ccc(OCC)cc3)ccc12 (stereo unspecified)
–,6.59,< 4.48,< 4.48,–,–,CCOC(=O)C(C)Oc1cccc2c(=O)n(CC(=O)NCc3ccc4c(c3)OCO4)ccc12 (stereo unspecified)
< 50%,5.45,–,–,< 50%,–,CCOC(=O)C(C)Oc1cccc2c(=O)n(CC(=O)N(C)c3ccc4c(c3)OCCO4)ccc12 (stereo unspecified)
< 50%,–,–,–,< 50%,< 50%,CCOC(=O)C(C)Oc1cccc2c(=O)n(C(Cc3ccccc3)C(=O)Nc3ccc4c(c3)OCCO4)ccc12 (stereo unspecified)
< 50%,5.07,–,–,< 50%,–,CCOC(=O)C(C)Oc1cccc2c(=O)n(CCC(=O)Nc3ccc4c(c3)OCCO4)ccc12 (stereo unspecified)
–,4.86,4.67,4.62,–,–,CCCCOc1cccc2c(=O)n(CC(=O)Nc3ccc4c(c3)OCCO4)ccc12
< 50%,–,–,–,< 50%,< 50%,CCOC(=O)C(C)Oc1ccc2c(=O)n(CC(=O)Nc3ccc4c(c3)OCCO4)ccc2c1 (stereo unspecified)
< 50%,6.70,–,–,< 50%,–,CCOC(=O)C(C)Oc1cccc2c(=O)n(CC(=O)Nc3ccc(OC)cc3)ccc12 (stereo unspecified)
–,6.47,4.44,< 4.48,–,–,CCOC(=O)C(C)Oc1cccc2c(=O)n(CC(=O)Nc3ccc(C)cc3)ccc12 (stereo unspecified)
–,6.96,4.60,< 4.48,–,–,CCOC(=O)C(C)Oc1cccc2c(=O)n(CC(=O)Nc3ccc(CC)cc3)ccc12 (stereo unspecified)
–,6.12,< 4.48,< 4.48,–,–,CCOC(=O)C(C)Oc1cccc2c(=O)n(CC(=O)Nc3ccc4c(c3)OCCO4)ccc12 (stereo unspecified)
–,6.23,–,< 4.48,< 50%,–,CCOC(=O)C(C)(C)Oc1cccc2c(=O)n(CC(=O)Nc3ccc4c(c3)OCCO4)ccc12
< 50%,–,–,–,< 50%,< 50%,CCOC(=O)C(C)Oc1cccc2c(=O)n(C(C)C(=O)Nc3ccc4c(c3)OCCO4)ccc12 (stereo unspecified)
